For series [1] the following is noted: anti-inflammatory steroids at typical concentration in topical products (triamcinolone acetonide 0.025%-0.1% medium, 0.5% high); cited from earlier work.
Series [2] is described as follows: Shakability of the composition. The class given is physicochemical. An excerpt:
‘Shakability’ means that the composition contains some or sufficient flow to allow the composition to be mixed or remixed on shaking. That is, it has fluid or semi fluid properties. A breakable foam is that is thermally stable, yet breaks under sheer force.
‘Shakability’ means that the composition contains some or sufficient flow to allow the composition to be mixed or remixed on shaking. That is, it has fluid or semi fluid properties. In some very limited cases it may still be possible to have a foamable composition which is flowable but not apparently shakable.

The nature of series [3]: Foam appearance (color, odor, form). The series is classed as physicochemical. Further details: key to ODOR: No odor (N.O.); key to COLOR: white (W).
The mark [4] stands for this setting: active agent in stock of PEG-400 97.5, hydroxypropyl cellulose 0.5, steareth 2 2.0 (first Example 29).
[5] abbreviates: active agent in stock of propylene glycol 46, glycerin 33, dimethyl isosorbide 15, stearyl alcohol, hydroxypropyl cellulose, laureth-4, GMS/PEG 100 stearate (Example 30).
Setting [6] is: active agent in stock of propylene glycol 91, stearyl alcohol 2, Klucel EF 2, laureth-4 2, glyceryl monostearate/PEG 100 stearate 3 (second Example 29).

Where a name gives a salt, the structure may show the parent alone.

For the compound `CCC(=O)OCC(=O)[C@@]1(OC(=O)CC)[C@H](C)C[C@H]2[C@H]3[C@H]([C@@H](O)C[C@@]21C)[C@@]1(C)C=CC(=O)C=C1C[C@H]3Cl` [Alcometasone dipropionate], the “Relative Potency” value in series [1] is given as “Medium Potency”.

In the case of `O=C(O)CCCCCCCC(=O)O` [Azelaic acid], the SHAKABILITY result in series [2] (setting [4]), in series [2] (setting [5]) and in series [2] (setting [6]) was “Yes” throughout. In addition, the COLOR result in series [3] (setting [4]), in series [3] (setting [5]) and in series [3] (setting [6]) was “W” throughout. The ODOR result in series [3] (setting [4]), in series [3] (setting [5]) and in series [3] (setting [6]) was “N.O” in each case.

Consider `O=C(OOC(=O)c1ccccc1)c1ccccc1` [Benzoyl peroxide], for which the SHAKABILITY result in series [2] (setting [4]), in series [2] (setting [5]) and in series [2] (setting [6]) was “Yes” in each case. The COLOR entry in series [3] (setting [4]), in series [3] (setting [5]) and in series [3] (setting [6]) was “W” each time. Also, the ODOR entry in series [3] (setting [4]), in series [3] (setting [5]) and in series [3] (setting [6]) was “N.O” each time.

With `C[C@H]1C[C@H]2[C@@H]3CCC4=CC(=O)C=C[C@]4(C)[C@@]3(F)[C@@H](O)C[C@]2(C)[C@@]1(OC(=O)c1ccccc1)C(=O)CO` [Betamethasone-17-benzoate], in series [1], the “Relative Potency” value is given as “High Potency”.

`Cn1c(=O)c2c(ncn2C)n(C)c1=O` [Caffeine]: the SHAKABILITY entry in series [2] (setting [4]), in series [2] (setting [5]) and in series [2] (setting [6]) was “Yes” each time. The COLOR entry in series [3] (setting [4]), in series [3] (setting [5]) and in series [3] (setting [6]) was “W” each time. The ODOR entry in series [3] (setting [4]), in series [3] (setting [5]) and in series [3] (setting [6]) was “N.O” each time.

Take `C=C1/C(=C\C=C2/CCC[C@]3(C)[C@@H]([C@H](C)/C=C/[C@@H](O)C4CC4)CC[C@@H]23)C[C@@H](O)C[C@@H]1O` [Calcipotriol hydrate]: the SHAKABILITY entry in series [2] (setting [4]), in series [2] (setting [5]) and in series [2] (setting [6]) was “Yes” each time. Further, the COLOR entry in series [3] (setting [4]), in series [3] (setting [5]) and in series [3] (setting [6]) was “W” in each case. Also, the ODOR result in series [3] (setting [4]), in series [3] (setting [5]) and in series [3] (setting [6]) was “N.O” throughout.

For `Cc1cc(C2CCCCC2)n(O)c(=O)c1` [Ciclopiroxolamine], the SHAKABILITY result in series [2] (setting [4]), in series [2] (setting [5]) and in series [2] (setting [6]) was “Yes” in each case. The COLOR result in series [3] (setting [4]), in series [3] (setting [5]) and in series [3] (setting [6]) was “W” in each case. Also, the ODOR entry in series [3] (setting [4]), in series [3] (setting [5]) and in series [3] (setting [6]) was “N.O” throughout.

Turning to `CCC(=O)O[C@]1(C(=O)CCl)[C@@H](C)C[C@H]2[C@@H]3CCC4=CC(=O)C=C[C@]4(C)[C@@]3(F)[C@@H](O)C[C@@]21C` [Clobetasol Propionate], in series [1], the “Relative Potency” value was “Highest Potency”.

Consider `CCCC(=O)O[C@]1(C(=O)CCl)[C@H](C)C[C@@H]2[C@@H]3CCC4=CC(=O)C=C[C@]4(C)[C@]3(F)C(=O)C[C@@]21C` [Clobetasone-17-butyrate], for which the “Relative Potency” value in series [1] is on record as “Medium Potency”.

For the compound `CC1(C)O[C@@H]2C[C@H]3[C@@H]4CCC5=CC(=O)C=C[C@]5(C)[C@H]4[C@@H](O)C[C@]3(C)[C@]2(C(=O)CO)O1` [Desonide], the “Relative Potency” value in series [1] was “Low Potency”.

Consider `CC(=O)OCC(=O)[C@@]12OC(C)(C)O[C@@H]1C[C@H]1[C@@H]3C[C@H](F)C4=CC(=O)C=C[C@]4(C)[C@@]3(F)[C@@H](O)C[C@@]12C` [Flucinonide], for which the “Relative Potency” value in series [1] is “Medium Potency”.

Turning to `CC1(C)O[C@@H]2C[C@H]3[C@@H]4C[C@H](F)C5=CC(=O)C=C[C@]5(C)[C@@]4(F)[C@@H](O)C[C@]3(C)[C@]2(C(=O)CO)O1` [Fluocinolone Acetonide], the “Relative Potency” value in series [1] was “Medium Potency”.

Regarding `CC1(C)O[C@@H]2C[C@H]3[C@@H]4CCC5=CC(=O)CC[C@]5(C)[C@@]4(F)[C@@H](O)C[C@]3(C)[C@]2(C(=O)CCl)O1` [Halcinonide], in series [1], the “Relative Potency” value is recorded as “High Potency”.

In the case of `CC(=O)OCC(=O)[C@@]1(O)CC[C@H]2[C@@H]3CCC4=CC(=O)CC[C@]4(C)[C@H]3[C@@H](O)C[C@@]21C` [Hydrocortison Acetate], the “Relative Potency” value in series [1] is “Low Potency”.

Take `C[C@]12CCC(=O)C=C1CC[C@@H]1[C@@H]2[C@@H](O)C[C@@]2(C)[C@H]1CC[C@]2(O)C(=O)CO` [Hydrocortisone]: the “Relative Potency” value in series [1] is given as “Low Potency”.

As to `CC(=O)N1CCN(c2ccc(OCC3COC(Cn4ccnc4)(c4ccc(Cl)cc4Cl)O3)cc2)CC1` (stereo not shown) [Ketoconazole], the SHAKABILITY entry in series [2] (setting [4]) and in series [2] (setting [6]) was “Yes” in each case. Moreover, the COLOR result in series [3] (setting [4]) and in series [3] (setting [6]) was “W” in each case. Moreover, the ODOR result in series [3] (setting [4]) and in series [3] (setting [6]) was “N.O” in each case.

For `CCC(=O)O[C@]1(C(=O)COC(C)=O)CC[C@H]2[C@@H]3C[C@H](C)C4=CC(=O)C=C[C@]4(C)[C@H]3[C@@H](O)C[C@@]21C` [Methylprednisolone aceponate], in series [1], the “Relative Potency” value is “High Potency”.

As to `C[C@@H]1C[C@H]2[C@@H]3CCC4=CC(=O)C=C[C@]4(C)[C@@]3(Cl)[C@@H](O)C[C@]2(C)[C@@]1(OC(=O)c1ccco1)C(=O)CCl` [Mometasone furoate], the “Relative Potency” value in series [1] is recorded as “Medium Potency”.

Turning to `CC1(C)C(C=C(Cl)Cl)C1C(=O)OCc1cccc(Oc2ccccc2)c1` (stereo not drawn) [Permethrin BPC (cis:trans 25:75), Permethrin], the SHAKABILITY result in series [2] (setting [4]) and in series [2] (setting [6]) was “Yes” in each case. Also, the results for the COLOR result in series [3] (setting [4]) and in series [3] (setting [6]) were “W” and “O.W”, respectively. Moreover, the ODOR entry in series [3] (setting [4]) was “N.O”; in series [3] (setting [6]) it was “No”.

With `CN1C(C(=O)Nc2ccccn2)=C(O)c2ccccc2S1(=O)=O` [Piroxicam], the SHAKABILITY entry in series [2] (setting [4]) and in series [2] (setting [6]) was “Yes” in each case. Moreover, the COLOR entry in series [3] (setting [4]) is “Light”; in series [3] (setting [6]), “O.W”. Further, the results for the ODOR result in series [3] (setting [4]) and in series [3] (setting [6]) were “N.O” and “No”, respectively.

With `CCOC(=O)O[C@]1(C(=O)COC(=O)CC)CC[C@H]2[C@@H]3CCC4=CC(=O)C=C[C@]4(C)[C@H]3[C@@H](O)C[C@@]21C` [Prednicarbate], in series [1], the “Relative Potency” value was “Medium Potency”.

With `O=C(O)c1ccccc1O` [Salicylic acid], the SHAKABILITY entry in series [2] (setting [4]) and in series [2] (setting [6]) was “Yes” throughout. In addition, the COLOR result is “W” in series [3] (setting [4]) and “O.W” in series [3] (setting [6]). The ODOR result in series [3] (setting [4]) is listed as “N.O”; in series [3] (setting [6]), “No”.

For the compound `CN(C/C=C/C#CC(C)(C)C)Cc1cccc2ccccc12` [Terbinafine HCl], the SHAKABILITY result in series [2] (setting [4]) and in series [2] (setting [6]) was “Yes” in each case. The COLOR entry in series [3] (setting [4]) and in series [3] (setting [6]) was “W” throughout. Besides, the ODOR result in series [3] (setting [4]) is recorded as “N.O”; in series [3] (setting [6]) it was “No”.

Values taken from patent publication US8486374B2, “Hydrophilic, non-aqueous pharmaceutical carriers and compositions and uses” (Foamix Ltd., priority 2004, dated 2013).
